Here are results for eight compounds from patent US5064827A, “Polyhydroxybenzyloxpropanolamines” (Du Pont Merck Pharmaceutical Company, priority 1990, dated 1991).

Assay [1] addresses T1, β-receptor (guinea pig right atria) (Cavia porcellus, UniProt H0W3H1).
T1 construct: from tissue; host or cells: guinea pig right atria
Briefly: Beta-blocking activity in vitro, guinea pig right atria (antagonism of isoproterenol-induced rate response). The class given is cell-based. To be noted: 60-minute incubation, 37° C, Furchgott method; for Kb: read-out: pA2 Atria (converted). The method, then: Several of the compounds of the present invention were tested for β-blocking activity in vitro using guinea pig right atria and guinea pig tracheal strips mounted in a tissue bath containing oxygenated (95% 02 -5% CO2) Krebs physiological salt solution at 37° C. Each tissue was suspended between a fixed glass rod and a Statham Universal Transducer connected to a Beckman recorder. Atria were allowed to beat spontaneously under a loading tension of approximately 0.5 gm. Intrinsic depressant or stimulant activity was determined for each compound by progressively increasing concentrations in the tissue baths at 60-minute intervals. Tissues were not washed between increments. The maximum concentration showing little or no cardiodepressant activity was chosen for blockade experiments. Changes in rate in response to isoproterenol, a standard β-receptor agonist, were measured in the absence and presence of test compounds. Spiral strips of guinea pig trachea were suspended under 5 gm resting tension and incubated with phentolamine, tropolone and cocaine. Active tension was generated by addition of carbachol (3.0×10^-7 M) and decreases in tension in response to isoproterenol were quantitated. Cumulative concentration-response curves were produced with isoproterenol both before and after 60-minute incubation of test compounds with atria and trachea. Compounds with β-blocking activity shifted concentration-response curves to the right. The blocking potency of test compounds was estimated by computing pA2 values (--log K8) by the method of Furchgott, the Pharmacological Differentiation of Adrenergic Receptors, Ann. N.Y. Acad. Sci., 139:553-570 (1967). […] The degree of cardioselectivity was estimated from the ratio, Kβ trachea/Kβ atria (10^(pA 2^atria-pA 2^trachea)). A ratio greater than one indicates cardioselectivity. Test drugs were dissolved in distilled water and added to the bath (30 mL) in a volume of 10 or 100 μL. All of the test compounds are active β-blockers.

For assay [2], the system named is β-receptor (heart rate response to isoproterenol). Briefly: Duration and potency of beta-blocking action in vivo (3-hour infusion, isoproterenol challenge, pentobarbital-anesthetized dogs). Also on record: species or system dog. As for the experimental part: The duration of β-blockage was determined in vivo using pentobarbital-anesthetized dogs instrumented for measurement of heart rate using a Beckman cardiotachometer triggered electronically by a phasic aortic blood pressure signal. Both vagus nerves were severed in the cervical region and the animals were mechanically ventilated. The experimental design used employed a 3-hour infusion of test compound. Bolus doses of isoproterenol (0.5 μg/kg) were used to assess the degree of β-blockage and recovery from β-blockage after […] of the infusion. The doses were spaced at 10-minute intervals and were given before, during and following the infusion of test compounds. The infusion rate was adjusted so that at the end of the 3-hour infusion period the degree of isoproterenol inhibition averaged about 50% of control. Following termination of blocker infusion, percent recovery from β-blockade was computed and the time associated with 80% recovery estimated.

T1 sequence (H0W3H1 1-470): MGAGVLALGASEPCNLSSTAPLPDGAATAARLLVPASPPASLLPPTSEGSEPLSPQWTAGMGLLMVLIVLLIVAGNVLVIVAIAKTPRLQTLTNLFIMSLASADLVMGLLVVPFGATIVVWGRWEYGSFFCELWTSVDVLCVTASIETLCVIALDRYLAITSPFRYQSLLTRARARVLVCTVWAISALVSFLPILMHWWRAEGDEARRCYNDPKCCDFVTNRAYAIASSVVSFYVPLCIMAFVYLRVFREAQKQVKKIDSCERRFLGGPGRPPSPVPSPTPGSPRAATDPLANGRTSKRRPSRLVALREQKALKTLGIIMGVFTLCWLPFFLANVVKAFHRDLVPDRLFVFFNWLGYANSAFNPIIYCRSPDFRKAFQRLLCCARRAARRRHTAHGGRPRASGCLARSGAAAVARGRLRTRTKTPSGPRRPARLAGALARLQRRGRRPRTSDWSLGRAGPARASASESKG

Turning to `CC(C)C(=O)NCC(C)(C)NCC(O)COCc1cc(O)cc(O)c1` (stereo not drawn) [Compound 5c], the Kb in assay [1] is 79.4 nM.
On to `CC(C)(C)NCC(O)COCc1cc(O)c(O)cc1F` (stereo not drawn) [Compound 4b], for which, in assay [1], the “pA2 Atria” value was determined as 7.0.
On to `CC(C)(C)NCC(O)COCc1cc(O)c(O)c(O)c1` (stereo not drawn) [Compound 5b], for which the Kb in assay [1] is 1000 nM.
In the case of `Cc1cc(O)c(O)cc1COCC(O)CNC(C)(C)C` (stereo not drawn) [Compound 4c], in assay [1], the “pA2 Atria” value came out at 6.0.
Consider `CC(C)(C)NCC(O)COCc1ccc(O)c(O)c1` (stereo not drawn) [Compound 4a], for which the “In Vivo Potency” value in assay [2] (anesthetized dogs, infusion rate adjusted to about 50% isoproterenol inhibition at end of 3-hour infusion) is 112 mcg/k/m. In addition, the “In Vivo % I” value in assay [2] (isoproterenol inhibition (isoproterenol 0.5 μg/kg bolus), dogs, 3-hour infusion at the listed potency rate) is 45%. The “DOA (Time for rec. in min.) 50%” value in assay [2] (time to 50% recovery from β-blockade after termination of 3-hour infusion, dogs) was determined as 5 min. Further, the “DOA (Time for rec. in min.) 80%” value in assay [2] (time to 80% recovery from β-blockade after termination of 3-hour infusion, dogs, estimated) is 16 min. The “pA2 Atria” value in assay [1] was found to be 6.5.
On to `CC(C)(CNC(=O)c1ccccc1)NCC(O)COCc1cc(O)cc(O)c1` (stereo not drawn) [Compound 5d], for which the Kb in assay [1] was 79.4 nM.
As to `CC(C)(C)NCC(O)COCc1cc(O)cc(O)c1` (stereo not drawn) [Compound 5a], the Kb in assay [1] was 316 nM.
Same read-out and setting: in the case of `CC(C)(CNC(=O)C1CCCCC1)NCC(O)COCc1cc(O)cc(O)c1` (stereo not drawn) [Compound 5e] it was 200 nM.
